In experiment [1] the test system is MIA PaCa-2 (human pancreatic carcinoma) cells. The experiment in a line: Cell Viability Assay (CellTiter-Glo), MIA PaCa-2. It is filed as cell-based. The procedure: Serially-diluted compound or DMSO was added to the cells, and plates were incubated at 37° C., 5% CO2 for 72 h. Cell viability was measured using a CellTiter-Glo® Luminescent Cell Viability Assay kit (Promega) according to the manufacturer's protocol. The luminescence signal of treated samples was normalized to DMSO control, and data were analyzed using a 4-parameter logistic model to calculate IC50 values.
In general terms: Cellular ATP, detected with luciferase, serves as a proxy for viable cell number.

The target of experiment [2] is KRAS G12C (Homo sapiens (Human), UniProt P01116, C118A/G12C). In words: 2 h coupled exchange assay. It counts as biochemical. Conditions: Avg 2 h Coupled exchange IC50, 2 h compound pre-incubation. How it is done:
The term “2 h coupled exchange assay” or “20 h coupled exchange assay” as used herein refers to the assay described in the Section entitled “BIOLOGICAL EVALUATION.”

Experiment [3] relates to A549 (human lung carcinoma) cells. The experiment in a line: Cell Viability Assay (CellTiter-Glo), A549. It is filed as cell-based. The gist of the method:
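Seeding at 1.67E+04 cells/mL is followed by overnight attachment at 37° C., 5% CO2. Serially diluted compound is added for 72 h. Viability is read by CellTiter-Glo luminescence, scaled to DMSO and fitted (4-parameter logistic) to give IC50.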

Eight molecules from US20240059703A1 (AMGEN INC., priority 2021, published 2024) can be followed below.

The structures appear in SMILES notation.

Chain of KRAS G12C (P01116 other isoform, or with tags, fused parts or gaps G12C/C118A): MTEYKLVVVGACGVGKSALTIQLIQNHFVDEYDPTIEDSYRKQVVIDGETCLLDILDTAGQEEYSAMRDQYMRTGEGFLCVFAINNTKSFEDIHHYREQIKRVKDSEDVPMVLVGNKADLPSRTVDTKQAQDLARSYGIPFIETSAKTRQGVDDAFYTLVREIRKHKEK

Broadly, the IC50 is the concentration at which inhibition is half-maximal. Lower therefore signals inhibition by little substance. Consider `C=CC(=O)N1CC2(CCN(c3nc4cc(-c5scnc5C)ccc4c(-c4ccccc4C)c3C#N)C2)C1` (single isomer, unassigned) [Example 19-11, (P)-4-(2-methylphenyl)-7-(4-methyl-1,3-thiazol-5-yl)-2-(2-(2-propenoyl)-2,6-diazaspiro[3.4]octan-6-yl)-3-quinolinecarbonitrile], for which the IC50 was 1350 nM in experiment [1] (Homo sapiens, MIA PaCa-2, 72 h); 68 nM in experiment [2]; over 5000 nM in experiment [3] (Homo sapiens, A549, 72 h).
With `C=CC(=O)N1CC2(CCN(c3nc4cc(-c5scnc5C)ccc4c(-c4ccccc4C)c3C#N)C2)C1` (single isomer, unassigned) [Example 19-12, (M)-4-(2-methylphenyl)-7-(4-methyl-1,3-thiazol-5-yl)-2-(2-(2-propenoyl)-2,6-diazaspiro[3.4]octan-6-yl)-3-quinolinecarbonitrile], the IC50 in experiment [1] (72 h) was determined as 1400 nM; in experiment [2], 74 nM; in experiment [3] (72 h), 3790 nM.
In the case of `C=CC(=O)N1CC2(CCN(c3nc4cc(-c5scnc5C)cnc4c(-c4cccc(C)c4C)c3C#N)C2)C1` (single isomer, unassigned) [Example 19-13, (M)-4-(2,3-dimethylphenyl)-7-(4-methyl-1,3-thiazol-5-yl)-2-(2-(2-propenoyl)-2,6-diazaspiro[3.4]octan-6-yl)-1,5-naphthyridine-3-carbonitrile], the IC50 in experiment [1] (Homo sapiens, MIA PaCa-2, 72 h) is 671 nM; in experiment [2], 67 nM; in experiment [3] (Homo sapiens, A549, 72 h), over 5000 nM.
For the molecule `C=CC(=O)N1CC2(CCN(c3nc4cc(-c5scnc5C)cnc4c(-c4cccc(C)c4C)c3C#N)C2)C1` (single isomer, unassigned) [Example 19-14, (P)-4-(2,3-dimethylphenyl)-7-(4-methyl-1,3-thiazol-5-yl)-2-(2-(2-propenoyl)-2,6-diazaspiro[3.4]octan-6-yl)-1,5-naphthyridine-3-carbonitrile], the IC50 is 366 nM in experiment [1] (72 h), 38 nM in experiment [2] and over 5000 nM in experiment [3] (72 h).
On to `C=CC(=O)N1CC2(CCN(c3nc4cc(-c5scnc5C)ccc4c(-c4c(O)cccc4F)c3C#N)C2)C1` (single isomer, unassigned) [Example 19-15, (M)-4-(2-fluoro-6-hydroxyphenyl)-7-(4-methyl-1,3-thiazol-5-yl)-2-(2-(2-propenoyl)-2,6-diazaspiro[3.4]octan-6-yl)-3-quinolinecarbonitrile], for which the half-maximal inhibitory concentration (IC50) in experiment [1] (72 h) was 4560 nM; in experiment [2] it was 2960 nM; in experiment [3] (72 h), 7600 nM.
On to `C=CC(=O)N1CC2(CCN(c3nc4cc(-c5scnc5C)ccc4c(-c4ccccc4Cl)c3C#N)C2)C1` (single isomer, unassigned) [Example 20-3, (M)-4-(2-chlorophenyl)-7-(4-methyl-1,3-thiazol-5-yl)-2-(2-(2-propenoyl)-2,6-diazaspiro[3.4]octan-6-yl)-3-quinolinecarbonitrile], for which the IC50 in experiment [1] (72 h) is 2180 nM; in experiment [2] it was 277 nM; in experiment [3] (Homo sapiens, A549, 72 h), over 5000 nM.
Regarding `C=CC(=O)N1CC2(CCN(c3nc4cc(-c5scnc5C)ccc4c(-c4ccccc4Cl)c3C#N)C2)C1` (single isomer, unassigned) [Example 20-4, (P)-4-(2-chlorophenyl)-7-(4-methyl-1,3-thiazol-5-yl)-2-(2-(2-propenoyl)-2,6-diazaspiro[3.4]octan-6-yl)-3-quinolinecarbonitrile], the IC50 is 1010 nM in experiment [1] (72 h), 69 nM in experiment [2] and over 5000 nM in experiment [3] (72 h).
On to `C=CC(=O)N1CC2(CCN(c3nc4cc(-c5scnc5C)cnc4c(-c4ccccc4Cl)c3C#N)C2)C1` (single isomer, unassigned) [Example 20-8, (M)-4-(2-chlorophenyl)-7-(4-methyl-1,3-thiazol-5-yl)-2-(2-(2-propenoyl)-2,6-diazaspiro[3.4]octan-6-yl)-1,5-naphthyridine-3-carbonitrile], for which the IC50 in experiment [1] (72 h) was 974 nM; in experiment [2], 139 nM; in experiment [3] (Homo sapiens, A549, 72 h), over 5000 nM.
